Source: patent US20100099700A1, “HYDROGENATED PYRIDO (4,3-B) INDOLES FOR TREATING AMYOTROPHIC LATERAL SCLEROSIS (ALS)” (priority 2006, published 2010)
Entries after “also recorded” stand apart in the source; their conditions may differ. Read-outs that look alike come from different tables or passages of the source.

Tests used:
[1] = tested on: transgenic Drosophila engineered to express the mutant huntingtin protein in all their neurons; conditions: historical positive control; cited from earlier work
[2] = tested on: transgenic Drosophila engineered to express the mutant huntingtin protein in all their neurons; assay: Inhibition of mutant huntingtin-induced neurodegeneration of photoreceptor neurons in Drosophila eyes (pseudopupil method); type: in vivo; conditions: 7 days
Protocol: Dimebon was administered to one group of transgenic Drosophila engineered to express the mutant huntingtin protein in all their neurons as described in U.S. Provisional Patent Application No. 60/723,403. This was accomplished by cloning a foreign gene into transposable p-element DNA vectors under control of a yeast upstream activator sequence that was activated by the yeast GAL4 transcription factor. These promoter fusions were injected into fly embryos to produce transgenic animals. The foreign gene is silent until crossed to another transgenic strain of flies expressing the GAL4 gene in a tissue specific manner. The Elav>Gal4 which expresses the transgene in all neurons from birth until death was used in the experiments described. The two types of transgenic animals were crossed in order to collect enough closely matched aged controls to study. The crossed aged-matched adults (−20 per dosing group) were placed on drug containing food for 7 days. Animals were transferred to fresh food daily to minimize any effects caused by instability of the compounds. Survival was scored daily. At day 7, animals were sacrificed and the number of photoreceptor neurons surviving was counted.

[3] = tested on: primary chick neurons; assay: 2% growth factor withdrawal (low serum) assay, MTT viability; type: cell-based, chicken
Protocol: (§1) Cells: Lohman Brown chicken embryo hybrids were used for the assay. One-day-old fertilised eggs were purchased from a local chicken breeder (Schropper Geflügel GmbH, Austria) and stored in the lab under appropriate conditions (12° C. and 80% humidity). At embryonic day 0 eggs were transferred into a breeding incubator and stored under permanent turning until embryonic day 8 at 37.8° C. and 55% humidity. Approximately five to six chicken embryos were used for isolation of neurons per experiment.
(§2) Eggs were wiped with 70% ethanol and cracked with large forceps at the blunt end. After decapitation of the embryo, the tissue covering the telencephalon was removed and hemispheres collected. After removing any loose tissue and remaining meningeal membranes, hemispheres were transferred into a dish containing nutrition medium. The tissue was dissociated mechanically by using a 1 ml pipette and by squeezing 3 times through a sterile nylon sieve with a pore size of 100 μm.
Poly-D-Lysine coated 96-well microtiter plates (Biocoat) were used to culture the cells. Culture medium (160 μl) containing 3×10^5 cells/ml nutrition medium (48 000 cells/well) were added to each well of a microtiter plate Plates were kept at 37° C., 95% humidity and 5% CO2 without change of media. Neurons begin to extend processes after a few hours in culture.
Low Serum Culture Conditions: The low serum medium used for the 2% growth factor withdrawal experiments described here includes EMEM with 1 g glucose/l and 2% FCS. The control medium includes DMEM with 4.5 g glucose/l and 5% Nu Serum. […]
Dimebon was applied to the cells on day 1 for the whole experimental period of 8 days. Viability of cells was determined with the MTT assay using a plate-reader (570 nM). […] Since this reaction is catalysed in living cells only the assay can be used for the quantification of cell viability. […] To estimate optical density a plate-reader (Anthos HT II) was used at wavelength 570 nM. […]

[4] = tested on: primary chick neurons; assay: 2% growth factor withdrawal (low serum) assay, AM-Calcein; type: cell-based, chicken; conditions: p<0.01, 8 days
Protocol: as §1, §2
Poly-D-Lysine coated 96-well microtiter plates (Biocoat) were used to culture the cells. Culture medium (160 μl) containing 3×10^5 cells/ml nutrition medium (48 000 cells/well) were added to each well of a microtiter plate Plates were kept at 37° C., 95% humidity and 5% CO2 without change of media. Neurons begin to extend processes after a few hours in culture. […]

[5] = tested on: wildtype Drosophila fruit flies; assay: Toxicity of dimebon in wildtype Drosophila (eclosion number and timing); type: in vivo; conditions: daily
Protocol: Dimebon was evaluated for toxicity levels in wildtype Drosophila fruit flies as described in U.S. Provisional Patent Application No. 60/723,403. Dimebon was administered daily at doses ranging from 10 μM to 1 mM to explore its toxicity. An untreated control group was also studied in this experiment. The concentrations given were concentrations of dimebon in the food that animals drink/eat ad libitum. The food consisted of cornmeal, dextrose, yeast and agar.
About 500 wild type Drosophila eggs were collected on grape juice plates, washed with distilled water and transferred 100 per vial to grow at 25 degrees C. The adult progeny were scored after eclosing (emerging from the pupal case) beginning 10 days later. The criteria used for toxicity were the number (%) of animals that eclose and the time of the eclosing. For example, fewer animals may emerge from the pupal case if a drug is toxic or the same number of animals may eclose but more slowly than the untreated control group.

[6] = tested on: G93AmSOD mice; assay: G93AmSOD transgenic mouse treatment model (time to stage 2 / stage 1 disease); type: in vivo
Protocol: For this study, G93AmSOD mice were randomized into 4 treatment groups. Mice were weaned and raised on a normal diet for 85 days. Beginning at approximately day 80 or earlier if noted clinically, animals underwent daily assessment for hind limb weakness (time to stage 3 disease). In general, this occurred within a week of day 85. At 85 days, mice were given dimebon in the drinking water at the following concentrations: vehicle control (0 mg/kg/day), low dose (3 mg/kg/day), medium dose (10 mg/kg/day), and high dose (30 mg/kg/day). The drinking water was changed every 3-4 days, and each cage held approximately 3-5 animals.
Animals were weighed and analyzed daily to assess their strength and function. The day during which hind limb paralysis occurred was recorded (progression to stage 2 disease). Also recorded was the day at which the animals could no longer right themselves after 30 seconds (progression to stage 1 disease—a surrogate for mortality). Upon reaching stage 1 disease, animals were euthanized. […] When animals were no longer able to reliably reach the drinking water, they were given their daily mg/kg dose by intraperitoneal injection. Analyses were performed to compare the groups in terms of time to reach stage 2 and time to reach stage 1. As described further below, a Cox proportional hazards model including the effect of treatment group was fit.
A Cox proportional hazards regression model including the effect of treatment group was fit for the time to stage 2 for both sexes combined. In addition to testing the null hypothesis of no difference among the four groups, pair wise comparisons of each of the treated groups to the control group were tested. The model was fit using the SAS PHREG procedure. The same type of model was then fit to the data for each sex separately.
A Cox proportional hazards regression model including the effect of treatment group was fit for the time to stage 1 for both sexes combined. In addition to testing the null hypothesis of no difference among the four groups, pair wise comparisons of each of the treated groups to the control group were tested. The model was fit using the SAS PHREG procedure. The same type of model was then fit to the data for each sex separately.

[7] = 3 mg/kg/day versus vehicle, both sexes combined
[8] = 3 mg/kg/day versus vehicle, females
[9] = 3 mg/kg/day versus vehicle, males
[10] = 3 mg/kg/day, both sexes combined
[11] = 10 mg/kg/day versus vehicle, both sexes combined
[12] = 10 mg/kg/day versus vehicle, females
[13] = 10 mg/kg/day versus vehicle, males
[14] = 10 mg/kg/day, both sexes combined
[15] = 30 mg/kg/day versus vehicle, both sexes combined
[16] = 30 mg/kg/day versus vehicle, females
[17] = 30 mg/kg/day versus vehicle, males
[18] = 30 mg/kg/day, both sexes combined

SMILES: C[C@@H](N)[C@H]1CC[C@H](C(=O)Nc2ccncc2)CC1 [Y-27632]
- rescue of photoreceptor neurons [1]: strongly rescuing

SMILES: Cc1ccc2c(c1)c1c(n2CCc2ccc(C)nc2)CCN(C)C1.Cl.Cl [dimebon, 2,8-dimethyl-5-(2-(6-methyl-3-pyridyl)-ethyl)-2,3,4,5-tetrahydro-1H-pyrido(4,3-b)indol dihydrochloride]
- rescue of photoreceptor neurons ([2]; 10 μM in food): lesser but still apparent rescue of neurons
- rescue of photoreceptor neurons compared to untreated controls ([2]; 100 μM in food): statistically significant (p=0.0014) rescue of neurons
- rescue of photoreceptor neurons ([2]; 1 mM in food): still appeared to cause neuronal rescue, but to a lesser extent
- Emax at 6.25 µM ([3]; Gallus gallus, Neuron, 192 h, 6250 nM, 8 days, read-out: maximum effect in the MTT assay, above control): ~287%
- Dimebon concentrations at which statistically significant differences compared to control were achieved ([3]; MTT, p<0.05, 8 days): ≥ 1250 nM
- effect in the MTT assay ([3]; highest tested concentration 31250 nM): less than what was achieved at a concentration of 6250 nM
- Dimebon concentrations at which statistically significant differences compared to control were achieved [4]: ≥ 1250 nM
- % of animals eclosing ([5]; 1 mM in food): decrease
- timing of emergence slowed ([5]; 1 mM in food): approximately 1 day
- toxicity (% of animals that eclose and time of eclosing) ([5]; doses below 1 mM in food, dihydrochloride): no significant toxicity; also recorded: did not show significant toxicity
- Time to Stage 1: hazard ratio (Cox proportional hazards) [6, 7]: 1.112
- Time to Stage 2: hazard ratio (Cox proportional hazards) [6, 7]: 0.969
- Time to Stage 1: hazard ratio (Cox proportional hazards) [6, 8]: 1.089
- Time to Stage 2: hazard ratio (Cox proportional hazards) [6, 8]: 0.882
- Time to Stage 1: hazard ratio (Cox proportional hazards) [6, 9]: 0.967
- Time to Stage 2: hazard ratio (Cox proportional hazards) [6, 9]: 0.984
- Mean Time to Stage 1 (Expressed as a Percentage of the Mean in the Vehicle Group) [6, 10]: 98.8%
- Mean Time to Stage 2 (Expressed as a Percentage of the Mean in the Vehicle Group) [6, 10]: 99.8%
- Mean Time to Stage 1 (Expressed as a Percentage of the Mean in the Vehicle Group) ([6]; 3 mg/kg/day, females): 97.4%
- Mean Time to Stage 2 (Expressed as a Percentage of the Mean in the Vehicle Group) ([6]; 3 mg/kg/day, females): 100.2%
- Mean Time to Stage 1 (Expressed as a Percentage of the Mean in the Vehicle Group) ([6]; 3 mg/kg/day, males): 100.2%
- Mean Time to Stage 2 (Expressed as a Percentage of the Mean in the Vehicle Group) ([6]; 3 mg/kg/day, males): 99.4%
- Time to Stage 1: hazard ratio (Cox proportional hazards) [6, 11]: 0.738
- Time to Stage 2: hazard ratio (Cox proportional hazards) [6, 11]: 0.652
- Time to Stage 1: hazard ratio (Cox proportional hazards) [6, 12]: 0.855
- Time to Stage 2: hazard ratio (Cox proportional hazards) [6, 12]: 0.659
- Time to Stage 1: hazard ratio (Cox proportional hazards) [6, 13]: 0.524
- Time to Stage 2: hazard ratio (Cox proportional hazards) [6, 13]: 0.545
- Mean Time to Stage 1 (Expressed as a Percentage of the Mean in the Vehicle Group) [6, 14]: 103.3%
- Mean Time to Stage 2 (Expressed as a Percentage of the Mean in the Vehicle Group) [6, 14]: 104.9%
- Mean Time to Stage 1 (Expressed as a Percentage of the Mean in the Vehicle Group) ([6]; 10 mg/kg/day, females): 102.3%
- Mean Time to Stage 2 (Expressed as a Percentage of the Mean in the Vehicle Group) ([6]; 10 mg/kg/day, females): 104.9%
- Mean Time to Stage 1 (Expressed as a Percentage of the Mean in the Vehicle Group) ([6]; 10 mg/kg/day, males): 104.2%
- Mean Time to Stage 2 (Expressed as a Percentage of the Mean in the Vehicle Group) ([6]; 10 mg/kg/day, males): 104.9%
- Time to Stage 1: hazard ratio (Cox proportional hazards) [6, 15]: 0.505
- Time to Stage 2: hazard ratio (Cox proportional hazards) [6, 15]: 0.522
- Time to Stage 1: hazard ratio (Cox proportional hazards) [6, 16]: 0.314
- Time to Stage 2: hazard ratio (Cox proportional hazards) [6, 16]: 0.359
- Time to Stage 1: hazard ratio (Cox proportional hazards) [6, 17]: 0.647
- Time to Stage 2: hazard ratio (Cox proportional hazards) [6, 17]: 0.698
- Mean Time to Stage 1 (Expressed as a Percentage of the Mean in the Vehicle Group) [6, 18]: 104.7%
- Mean Time to Stage 2 (Expressed as a Percentage of the Mean in the Vehicle Group) [6, 18]: 104.8%
- Mean Time to Stage 1 (Expressed as a Percentage of the Mean in the Vehicle Group) ([6]; 30 mg/kg/day, females): 107.0%
- Mean Time to Stage 2 (Expressed as a Percentage of the Mean in the Vehicle Group) ([6]; 30 mg/kg/day, females): 107.7%
- Mean Time to Stage 1 (Expressed as a Percentage of the Mean in the Vehicle Group) ([6]; 30 mg/kg/day, males): 102.4%
- Mean Time to Stage 2 (Expressed as a Percentage of the Mean in the Vehicle Group) ([6]; 30 mg/kg/day, males): 101.8%
